Drawing on PMC6214026, “PSMA-Oriented Target Delivery of Novel Anticancer Prodrugs: Design, Synthesis, and Biological Evaluations of Oligopeptide-Camptothecin Conjugates” (International Journal of Molecular Sciences, 2018), this text covers IC50 for eight compounds.

Experiment [1] concerns MCF-7 cells (non-PSMA-expressing). Put plainly: cells. Type of experiment: cell-based, human. The note with it: read-out: IC50 MCF-7. As to the method: (§1) The cytotoxicities of PSMA-activated prodrug CPT-HT-J-ZLn and PSMA hydrolysate CPT-D-GLn were evaluated by MTT assays on PSMA-expressing (PSMA^+) cancer cell LNCaP-FGC, non-PSMA-expressing (PSMA^−) cancer cells HepG2, MCF-7, Hela, DU145, and PC-3, and normal cells MDCK, LO2, respectively, using CPT as a positive control.
(§2) The human prostate cancer cell line (LNCaP-FGC), human prostate cancer cell line (PC-3), human prostate cancer cell line (DU-145), human breast cancer cell line (MCF-7), human hepatocellular carcinoma cell line (HepG2), human cervical cancer cell line (Hela), were obtained from the Chinese Academy of Medical Sciences and Peking Union Medical College. The cultures of the cells were maintained as a monolayer in RPMI 1640 or DMEM supplemented with 10% (v/v) heat inactivated fetal bovine serum and 1% (v/v) enicillin/streptomycin (Corning, New York, NY, USA) and incubated at 37 °C in a humidified atmosphere with 5% CO2. The tested compounds were dissolved in DMSO (Sigma, St. Louis, MO, USA) and added at required concentrations to the cell culture.
(§3) The cytotoxicity of all the tested compounds was evaluated in vitro via the MTT method against PSMA-expressing LNCaP-FGC cells and non-PSMA-expressing cells HepG2, Hela, MCF-7, DU145, PC-3 cells using CPT as the positive control. Tumor cells growing in the logarithmic phase were seeded in 96-well plates at a density 3 × 10^3 cells/well and incubated overnight. The following day, cells were then treated with serial dilutions of the tested compounds for 72 h. At the end of this incubation, 20 µL of 5 mg/mL methylthiazol tetrazolium (MTT) was added to each well and incubation proceeded at 37 °C for another 4 h. After the supernatant medium was thrown away, 150 µL dimethylsulphoxide (DMSO) were added to each well and absorbance was measured at 490 nm using a plate reader (BIORAD 550 spectrophotometer, Bio-rad Life Science Development Ltd., Berkeley, CA, USA). Experiments were performed in triplicate and the values were the average of three (n = 3) independent experiments. The concentration of the compound that results in 50% growth inhibition corresponds to the IC50. Tumor cell growth inhibitory rate was calculated using Equation (1): % inhibition = (1 − Sample group OD/Control group OD) × 100%(1)

Experiment [2] relates to HepG2 cells (non-PSMA-expressing). In words: cells. Type of experiment: cell-based, human. The note with it: read-out: IC50 HepG2. As to the method: as §1, §2, §3
Experiment [3] deals with PC-3 cells (non-PSMA-expressing). Put plainly: cells. The note with it: read-out: IC50 PC-3. Format: cell-based, human. The method, then: as §1, §2, §3
Experiment [4] relates to DU145 cells (non-PSMA-expressing). In words: cells. To be noted: read-out: IC50 DU145. Format: cell-based, human. As to the method:
as §1, §2, §3

Experiment [5] deals with HeLa cells (non-PSMA-expressing). Put plainly: MTT cytotoxicity assay, HeLa. Type of experiment: cell-based, human. The note with it: 72 h, mean ± SD, n = 3. The method, then:
as §1
The tested compounds were dissolved in DMSO (Sigma, St. Louis, MO, USA) and added at required concentrations to the cell culture.
as §3, with “experiments.” for “experiments. The concentration of the compound that results in 50% growth inhibition corresponds to the IC50. Tumor cell growth inhibitory rate was calculated using Equation (1): % inhibition = (1 − Sample group OD/Control group OD) × 100%(1)”
On the technique in general: Tetrazolium dyes change colour on reduction, which living cells bring about.

The next experiment relates to LO2 cells. Put plainly: cells. The note with it: read-out: IC50 LO2. Type of experiment: cell-based. As to the method: as §1, §3
The test system of a further experiment is MDCK cells. Put plainly: cells. Type of experiment: cell-based. The note with it: 72 h, read-out: IC50 MDCK. As to the method:
as §1, §3

Experiment [6] relates to LNCaP-FGC cells (PSMA-expressing). Put plainly: MTT cytotoxicity assay, LNCaP-FGC. Type of experiment: cell-based, human. The note with it: 72 h, read-out: IC50 LNCaP-FGC. As to the method:
as §1, §2, §3

Where two headings read alike, the source gives them in different places.

In general, IC50 refers to the point on the concentration scale where inhibition reaches its midpoint. For `CC[C@@]1(OC(=O)CCCCCCCCCCCNC(=O)[C@@H](N)CCC(=O)O)C(=O)OCc2c1cc1n(c2=O)Cc2cc3ccccc3nc2-1` [CPT-D-GL12, (S)-4-amino-5-((12-(((S)-4-ethyl-3,14-dioxo-3,4,12,14-tetrahydro-1H-pyrano[3′,4′:6,7]indolizino[1,2-b]quinolin-4-yl)oxy)-12-oxododecyl)amino)-5-oxopentanoic acid], the IC50 in experiment [1] (Homo sapiens, MCF7, 72 h) is > 40 µM; in experiment [2] (Homo sapiens, HepG2, 72 h), > 40 µM; in experiment [3] (Homo sapiens, PC-3, 72 h), > 40 µM; in experiment [4] (Homo sapiens, DU-145, 72 h) it was 7.38 ± 0.2 µM; in experiment [5] (Homo sapiens, HeLa), 25.5 ± 1 µM; in the experiment on LO2 cells (Homo sapiens, L02, 72 h) it was 3.8 ± 0.8 µM. The IC50 in the experiment with MDCK cells (Canis lupus familiaris, MDCK) came out at 5.1 ± 1.1 µM; in experiment [6] (Homo sapiens) it was 2.1 ± 0.68 µM.

For the compound `CC[C@@]1(OC(=O)CCCNC(=O)[C@H](CCC(=O)N[C@@H](CCC(=O)N[C@@H](CCC(=O)N[C@@H](CC(=O)OC(C)(C)C)C(=O)N[C@@H](CCC(=O)OC(C)(C)C)C(=O)OC(C)(C)C)C(=O)OC(C)(C)C)C(=O)OC(C)(C)C)NC(=O)OC(C)(C)C)C(=O)OCc2c1cc1n(c2=O)Cc2cc3ccccc3nc2-1` [CPT-HT-J-L4, 1,11,16,3-tetra-tert-butyl 26-((S)-4-ethyl-3,14-dioxo-3,4,12,14-tetrahydro-1H-pyrano[3′,4′:6,7]indolizino[1,2-b]quinolin-4-yl) (3S,6S,11S,16S,21S)-6-(2-(tert-butoxy)-2-oxoethyl)-21-((tert-butoxycarbonyl)amino)-5,8,13,18,22-pentaoxo-4,7,12,17,23-pentaazahexacosane-1,3,11,16,26-pentacarboxylate], the IC50 in experiment [1] (MTT, 72 h, mean ± SD, n = 3) was > 40 µM; in experiment [2] (MTT, 72 h, mean ± SD, n = 3), > 40 µM; in experiment [3] (MTT, 72 h, mean ± SD, n = 3) it was > 40 µM; in experiment [4] (MTT, 72 h, mean ± SD, n = 3), > 40 µM; in experiment [5], > 40 µM; with LO2 cells (MTT, 72 h, normal cells), > 40 µM. Further, the IC50 with MDCK cells (MTT, normal cells) is > 40 µM; in experiment [6] (MTT, mean ± SD, n = 3, PSMA+), > 40 µM.

Regarding `CC[C@@]1(OC(=O)CCCNC(=O)[C@@H](N)CCC(=O)N[C@@H](CCC(=O)N[C@@H](CCC(=O)N[C@@H](CC(=O)O)C(=O)N[C@@H](CCC(=O)O)C(=O)O)C(=O)O)C(=O)O)C(=O)OCc2c1cc1n(c2=O)Cc2cc3ccccc3nc2-1` [CPT-HT-J-ZL4, (3S,6S,11S,16S,21S)-21-amino-6-(carboxymethyl)-27-(((S)-4-ethyl-3,14-dioxo-3,4,12,14-tetrahydro-1H-pyrano[3′,4′:6,7]indolizino[1,2-b]quinolin-4-yl)oxy)-5,8,13,18,22,27-hexaoxo-4,7,12,17,23-pentaazaheptacosane-1,3,11,16-tetracarboxylic acid], the IC50 in experiment [1] (MTT, 72 h, mean ± SD, n = 3) was 0.32 ± 0.01 µM; in experiment [2] (MTT, 72 h, mean ± SD, n = 3), > 40 µM; in experiment [3] (MTT, 72 h, mean ± SD, n = 3) it was 9.98 ± 2.38 µM; in experiment [4] (MTT, 72 h, mean ± SD, n = 3), 9.73 ± 3.49 µM; in experiment [5] it was > 40 µM; in the experiment with LO2 cells (MTT, 72 h, normal cells) it was > 40 µM. For the same compound, the IC50 with MDCK cells (MTT, normal cells) was determined as 9.13 ± 2.4 µM; in experiment [6] (MTT, mean ± SD, n = 3, PSMA+), 1.18 ± 0.1 µM.

`CC[C@@]1(OC(=O)CCCCCNC(=O)[C@@H](N)CCC(=O)N[C@@H](CCC(=O)N[C@@H](CCC(=O)N[C@@H](CC(=O)O)C(=O)N[C@@H](CCC(=O)O)C(=O)O)C(=O)O)C(=O)O)C(=O)OCc2c1cc1n(c2=O)Cc2cc3ccccc3nc2-1` [CPT-HT-J-ZL6, (3S,6S,11S,16S,21S)-21-amino-6-(carboxymethyl)-29-(((S)-4-ethyl-3,14-dioxo-3,4,12,14-tetrahydro-1H-pyrano[3′,4′:6,7]indolizino[1,2-b]quinolin-4-yl)oxy)-5,8,13,18,22,29-hexaoxo-4,7,12,17,23-pentaazanonacosane-1,3,11,16-tetracarboxylic acid]: the IC50 in experiment [1] (MTT, 72 h, mean ± SD, n = 3) is 7.03 ± 3.76 µM; in experiment [2] (MTT, 72 h, mean ± SD, n = 3), > 40 µM; in experiment [3] (MTT, 72 h, mean ± SD, n = 3) it was 40 ± 3.37 µM; in experiment [4] (MTT, 72 h, mean ± SD, n = 3) it was 26.3 ± 1.81 µM; in experiment [5] it was > 40 µM; in the experiment with LO2 cells (MTT, 72 h, normal cells), > 40 µM. Besides, the IC50 in the experiment with MDCK cells (MTT, normal cells) came out at 19 ± 3.6 µM; in experiment [6] (MTT, mean ± SD, n = 3, PSMA+), 3.13 ± 0.4 µM.

As for `CC[C@@]1(OC(=O)CNC(=O)[C@H](CCC(=O)N[C@@H](CCC(=O)N[C@@H](CCC(=O)N[C@@H](CC(=O)OC(C)(C)C)C(=O)N[C@@H](CCC(=O)OC(C)(C)C)C(=O)OC(C)(C)C)C(=O)OC(C)(C)C)C(=O)OC(C)(C)C)NC(=O)OC(C)(C)C)C(=O)OCc2c1cc1n(c2=O)Cc2cc3ccccc3nc2-1` [CPT-HT-J-L2, 14,22,24,9-tetra-tert-butyl 1-((S)-4-ethyl-3,14-dioxo-3,4,12,14-tetrahydro-1H-pyrano[3′,4′:6,7]indolizino[1,2-b]quinolin-4-yl) (4S,9S,14S,19S,22S)-19-(2-(tert-butoxy)-2-oxoethyl)-4-((tert-butoxycarbonyl)amino)-3,7,12,17,20-pentaoxo-2,8,13,18,21-pentaazatetracosane-1,9,14,22,24-pentacarboxylate], the IC50 in experiment [1] (MTT, 72 h, mean ± SD, n = 3) was > 40 µM; in experiment [2] (MTT, 72 h, mean ± SD, n = 3), > 40 µM; in experiment [3] (MTT, 72 h, mean ± SD, n = 3), > 40 µM; in experiment [4] (MTT, 72 h, mean ± SD, n = 3), > 40 µM; in experiment [5], > 40 µM; in the experiment with LO2 cells (MTT, 72 h, normal cells), > 40 µM. In addition, the IC50 in the experiment with MDCK cells (MTT, normal cells) is > 40 µM; in experiment [6] (MTT, mean ± SD, n = 3, PSMA+) it was > 40 µM.

For the compound `CC[C@@]1(OC(=O)CCCCCNC(=O)[C@@H](N)CCC(=O)O)C(=O)OCc2c1cc1n(c2=O)Cc2cc3ccccc3nc2-1` [CPT-D-GL6, (S)-4-amino-5-((6-(((S)-4-ethyl-3,14-dioxo-3,4,12,14-tetrahydro-1H-pyrano[3′,4′:6,7]indolizino[1,2-b]quinolin-4-yl)oxy)-6-oxohexyl)amino)-5-oxopentanoic acid], the IC50 in experiment [1] (Homo sapiens, MCF7, 72 h) is 17.2 ± 3 µM; in experiment [2] (Homo sapiens, HepG2, 72 h) it was > 40 µM; in experiment [3] (Homo sapiens, PC-3, 72 h), 12.5 ± 0.8 µM; in experiment [4] (Homo sapiens, DU-145, 72 h), 3.97 ± 0.16 µM; in experiment [5] (Homo sapiens, HeLa) it was > 40 µM; in the experiment with LO2 cells (Homo sapiens, L02, 72 h), 1.5 ± 0.6 µM. Further, the concentration for half-maximal inhibition (IC50) in the experiment on MDCK cells (Canis lupus familiaris, MDCK) was 4 ± 0.42 µM; in experiment [6] (Homo sapiens) it was 8.17 ± 1 µM.

`CC[C@@]1(OC(=O)CCCCCN)C(=O)OCc2c1cc1n(c2=O)Cc2cc3ccccc3nc2-1` [CPT-B-L6, (S)-4-ethyl-3,14-dioxo-3,4,12,14-tetrahydro-1H-pyrano[3′,4′:6,7]indolizino[1,2-b]quinolin-4-yl 6-aminohexanoate]: the IC50 in experiment [1] (Homo sapiens, MCF7, 72 h) is 6.76 ± 1.47 µM; in experiment [2] (Homo sapiens, HepG2, 72 h) it was > 40 µM; in experiment [3] (Homo sapiens, PC-3, 72 h), 15.9 ± 1.73 µM; in experiment [4] (Homo sapiens, DU-145, 72 h), 3.55 ± 0.95 µM; in experiment [5] (Homo sapiens, HeLa), 15 ± 0.8 µM; in the experiment with LO2 cells (Homo sapiens, L02, 72 h), 2.71 ± 0.38 µM. The IC50 in the experiment on MDCK cells (Canis lupus familiaris, MDCK) stood at 5.44 ± 3 µM; in experiment [6] (Homo sapiens), 1.89 ± 0.2 µM.

Turning to `CC[C@@]1(OC(=O)CCCCCCCCCCCN)C(=O)OCc2c1cc1n(c2=O)Cc2cc3ccccc3nc2-1` [CPT-B-L12, (S)-4-ethyl-3,14-dioxo-3,4,12,14-tetrahydro-1H-pyrano[3′,4′:6,7]indolizino[1,2-b]quinolin-4-yl 12-aminododecanoate], the concentration for half-maximal inhibition (IC50) in experiment [1] (Homo sapiens, MCF7, 72 h) was 5.76 ± 0.86 µM; in experiment [2] (Homo sapiens, HepG2, 72 h), > 40 µM; in experiment [3] (Homo sapiens, PC-3, 72 h) it was 6.45 ± 0.42 µM; in experiment [4] (Homo sapiens, DU-145, 72 h) it was 7.32 ± 1.43 µM; in experiment [5] (Homo sapiens, HeLa), > 40 µM; in the experiment with LO2 cells (Homo sapiens, L02, 72 h), 2.63 ± 0.84 µM. Besides, the IC50 was found to be 5.2 ± 0.88 µM with MDCK cells (Canis lupus familiaris, MDCK) and 1.93 ± 1.03 µM in experiment [6] (Homo sapiens).
